For data set [1], the target named is T1, HilD (Salmonella typhimurium, UniProt P0CL08).
T1 construct: His6-SUMO (N, cleaved yes); made in house; host or cells: E. coli C41(DE3)
Nature of the data set: nanoDSF thermal stability, HilD. In kind it is binding, S. Typhimurium. Here is the method:
(§1) Thermal stability of proteins was determined using nanoDSF, with runs performed on a Prometheus NT.48 (NanoTemper Technologies). A twofold serial dilution series of C26 was prepared in DMSO. C26 was added to HilD or HilC (5 μM) in SEC buffer, giving a final DMSO concentration of 1% (v/v). Samples were incubated for >20 min at r.t. and centrifuged for 2 min prior to loading of standard capillaries (no. PR-C002). Samples were heated from 20° to 80°C with a temperature gradient of 0.5°C min^−1. Melting temperatures were calculated from changes in the fluorescence ratio (350/330 nm), using PR.Stability Analysis v1.0.3 and a temperature range of 40° to 70°C for curve fitting. Data analysis was performed using Prism 8.4 (GraphPad). The change in HilD melting temperature, Tm, was fitted as a function of ligand concentration, using Eqs. 1 and 2 to yield apparent affinity (Kd,app) values Tm{[L]0}=Tm,lower+(Tm,upper−Tm,lower)*(1−α{[L]0}) (1) α{[L]0}=[P]t−Kd−[L]t+{[P]t+[L]t+Kd,app}^2−{4[P]t[L]t}/2[P]t (2) where [P]t and [L]t are the total protein and ligand concentrations, respectively.
Background: In DSF a fluorescence change marks the thermal transition of the protein.

The test system of data set [2] is T3SS-1 proteins SipA, SctE (SipB), SctP (InvJ); T1SS protein SiiF. Nature of the data set: Western blotting of secreted and whole-cell proteins. As to conditions: Western blot. It is filed as cell-based, S. Typhimurium. As for the experimental part:
Western blot analysis to quantify secreted and nonsecreted proteins was carried out as previously described ([66]). After a 5-hour culture under SPI-1–inducing conditions, cultures were centrifuged at 10,000g for 2 min at 4°C to separate cell pellets for the quantification of target proteins in whole cells, and the supernatant for the quantification of secreted proteins. The supernatants were first filtered with a 0.22-μm pore size filter. Sodium deoxycholic acid was then added to a final concentration of 0.1% (w/v) followed by a protein precipitation with 10% trichloroacetic acid (v/v) for 30 min at 4°C. The samples were pelleted by centrifugation at 20,000g for 20 min at 4°C to retrieve precipitated proteins, which were lastly washed with acetone before resuspension in SDS–polyacrylamide gel electrophoresis (PAGE) loading buffer. Whole-cell samples were directly resuspended in SDS-PAGE loading buffer.
For orientation: Immunoblotting shows a protein as a band on a membrane.

Data set [3] deals with T2, HilC (Salmonella typhimurium, UniProt E1WAB2).
T2 construct: His6 followed by TEV protease cleavage site (N, cleaved yes); made in house; host or cells: E. coli C41(DE3)
T2 sequence (E1WAB2 whole entry): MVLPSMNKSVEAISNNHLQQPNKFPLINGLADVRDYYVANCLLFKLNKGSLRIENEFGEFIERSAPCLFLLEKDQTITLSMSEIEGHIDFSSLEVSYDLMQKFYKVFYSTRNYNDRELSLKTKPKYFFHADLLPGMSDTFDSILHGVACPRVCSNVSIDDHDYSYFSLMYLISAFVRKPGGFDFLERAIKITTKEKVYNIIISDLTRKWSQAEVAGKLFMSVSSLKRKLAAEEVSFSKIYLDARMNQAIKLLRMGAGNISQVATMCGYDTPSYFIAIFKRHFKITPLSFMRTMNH
Nature of the data set: nanoDSF thermal stability, HilC. In kind it is binding, S. Typhimurium. Here is the method: as §1

Data set [4] has as its target HilD-HilE heterodimer (Salmonella typhimurium, UniProt P0CL08). Put plainly: MST dimerization assay HilD-HilE. It is filed as binding, S. Typhimurium. As to conditions: 100 μM compound. As for the experimental part: MST measurements for the binding of HilD to HilE were performed as previously described ([39]). In summary, enhanced yellow fluorescent protein (EYFP)-HilD (100 nM) was incubated with 100 μM either oleic acid or C26 [with a final concentration of 1% (v/v) DMSO] for 10 min at r.t. (22° to 25°C) and subsequently mixed 1:1 with varying concentrations of HilE. Samples were incubated together for 10 min at r.t., centrifuged for 5 min, and loaded to standard capillaries (NanoTemper Technologies GmbH, no. MO-K022). MST runs were performed at 25°C on a NanoTemper Monolith NT.115, with an excitation power of 60% and medium MST power. Data were analyzed using the MO.Affinity Analysis v2.3 software, and affinity constants were calculated using the Kd model.

In data set [5] the test system is T3SS-2 (SseF-HiBiT secretion). Nature of the data set: SseF-HiBiT injection assay in LgBiT-expressing RAW 264.7 macrophages. In kind it is cell-based, S. Typhimurium. Particulars: C26 100 μM, inside RAW 264.7 macrophages, 7 hours after infection, MOI 10. Here is the method:
SseF injection assay was performed using the split-Nanoluc (HiBiT/LgBiT) system as described for SipA. In a white 96-well plate (NUNC) with optical bottom, 10^4 LgBiT-expressing RAW 264.7 macrophages ([65]) were seeded in 100 μl of DMEM, 24 hours before the infection. The strain harboring the plasmid-encoded sseF-HiBiT and the isogenic strain ΔssaV were grown in LB-NaCl at 37°C at 180 rpm until an OD600 of 0.9. Bacteria were washed twice with HBSS (Serva) and then used to infect preseeded cells on a 96-well plate with an MOI of 10. The plate was centrifuged at 300g for 3 min and then incubated for 30 min to allow invasion. Afterward, macrophages were washed with DMEM and incubated for 1 hour in DMEM supplemented with gentamicin (100 μg/ml) to eliminate noninvading bacteria. The medium was replaced by DMEM with gentamicin (16 μg/ml), supplemented with either DMSO (1%) or C26 at different concentrations. Cells were incubated at 37°C with 5% (v/v) CO2 for 5.5 hours (total infection time of 7 hours) and then washed twice with 1x PBS before luminescence measurements were carried out following the manufacturer’s instructions.
Background: HiBiT is a short tag that completes a luciferase, so light tracks the accessible tagged protein.

In data set [6] the test system is HeLa cells. Put plainly: Cytotoxicity, CellTox Green Cytotoxicity Assay, HeLa. It is filed as cell-based. As to conditions: exposure time 18 h. As for the experimental part:
In vitro toxicity of compound C26 was assessed in HeLa cells (ATCC CCL-2) using the ApoTox-Glo Triplex Assay and in macrophages RAW 264.7-LgBiT using the CellTox Green Cytotoxicity Assay (Promega, USA) according to the manufacturer’s instructions. The screening of in vitro toxicity of the compound analogs was performed with the CellTox Green Cytotoxicity Assay (Promega, USA) according to the manufacturer’s instructions. Cells (10^4 cells per well) were seeded into a 96-well plate and incubated for 24 hours at 37°C, 5% (v/v) CO2. Cells were then treated with the compound at different concentrations or 1% (v/v) DMSO in Dulbecco’s modified Eagle’s medium (DMEM) without phenol red at the desired exposure time. Fluorescence intensity was measured with a TECAN Spark microplate reader. Cytotoxicity [relative fluorescence units (RFU)] and viability (RFU) values were plotted to calculate the TC50 using GraphPad Prism 10.1.1.
Compound concentration (µM) […]
in vitro cytotoxicity of C26 and analogs. Cytotoxicity assessed with CellTox™ Green Cytotoxicity Assay with an exposure time of 18 h. N = 3 biological replicates. Data were plotted and TC50 values were generated with GraphPad Prism 10.1.1.
(1 picture or pasted object on this page, not shown here)

Data set [7] has as its target T3, HilD (Salmonella typhimurium, UniProt E1WAC0).
T3 construct: Strain PhilA-sfGFP and the isogenic ΔhilD PhilA-sfGFP were used for this purpose; endogenous in cells; host or cells: S. Typhimurium SL1344 strain PhilA-sfGFP
Nature of the data set: Whole-cell HilD activity assay (PhilA-sfGFP activation). Particulars: C26 100 μM, strain overexpressing hilD. It is filed as cell-based, S. Typhimurium.

T3 sequence (E1WAC0 whole entry): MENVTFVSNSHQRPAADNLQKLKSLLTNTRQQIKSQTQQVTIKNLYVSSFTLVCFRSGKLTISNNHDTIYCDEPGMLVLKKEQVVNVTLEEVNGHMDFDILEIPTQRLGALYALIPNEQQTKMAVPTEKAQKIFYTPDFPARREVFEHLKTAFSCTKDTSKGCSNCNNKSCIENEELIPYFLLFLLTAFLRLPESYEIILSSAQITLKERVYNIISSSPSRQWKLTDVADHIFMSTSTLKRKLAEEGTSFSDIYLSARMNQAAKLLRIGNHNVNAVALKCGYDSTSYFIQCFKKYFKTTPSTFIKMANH
T1 sequence (P0CL08 whole entry): as the sequence (E1WAC0 whole entry) above
HilD-HilE heterodimer, sequence (P0CL08 whole entry, one chain of several): as the sequence (E1WAC0 whole entry) above

As usually defined, the Kd is the equilibrium constant for the complex coming apart. Lower therefore signals tighter binding. Turning to `CN(CC(=O)NCc1ccc2c(c1)OCO2)Cc1ccc(Br)s1` [C26, N-(benzo[d][1,3]dioxol-5-ylmethyl)-2-{[(5-bromothiophen-2-yl)methyl](methyl)amino}acetamide], in data set [1], the Kd came to 30.2 µM. Besides, in data set [2], the “SipA, SctE and SctP secretion into the culture supernatant” value is given as “reduced in a dose-dependent manner”. Also, the “expression of SipA, SctE and SctP in whole cells” value in data set [2] was “blocked the expression”. The “expression of SiiF” value in data set [2] (FLAG-tagged SiiF) is “dose-dependent reduction”. In addition, in data set [3], the “thermal stability of HilC” value is recorded as “no effect on the thermal stability”. The “formation of HilD-HilE heterodimers” value in data set [4] is “no effect on heterodimerization”. The “SseF-HiBiT secretion, % of the control” value in data set [5] was found to be 37%. The same molecule showed a TC50 cytotoxicity in data set [6] of over 100 µM. The “decrease of PhilA activation” value in data set [7] (WT background) came to 14%; in data set [7] (ΔhilD ΔhilC ΔrtsA background), 18%.
